Tests used:
[1] = Toxicity of maintained body water 2H2O enrichment; assay type: in vivo; settings: 1-10% of total body water labeled, maintained for weeks or months; >100 human subjects
Source text: Relatively high body water enrichments of ^2H2O (e.g., 1-10% of the total body water is labeled) may be achieved relatively inexpensively using the techniques of the invention. […] This finding in a large number of human subjects (>100 people) is contrary to previous concerns about vestibular toxicities at high doses of ^2H2O. One of the Applicants has discovered that as long as rapid changes in body water enrichment are prevented (e.g., by initial administration in small, divided doses), high body water enrichments of ^2H2O can be maintained with no toxicities. For example, the low expense of commercially available ^2H2O allows long-term maintenance of enrichments in the 1-5% range at relatively low expense (e.g., calculations reveal a lower cost for 2 months labeling at 2% ^2H2O enrichment, and thus 7-8% enrichment in the alanine precursor pool, than for 12 hours labeling of ^2H-leucine at 10% free leucine enrichment, and thus 7-8% enrichment in leucine precursor pool for that period).

[2] = tested on: hippocampal tubulin dimers and tau-associated, tau-nonassociated (MAP2/STOP) and cold-stable microtubules; experiment: 2H label incorporation into hippocampal tubulin dimers and microtubule fractions after ICVC infusion (2H2O labeling, GC/MS); assay type: in vivo, mouse
Description: In (A) and (B), mice received ICVC infusions of 6 μl water alone or containing 0.48 nmol glutamate (80 μM in the infusate), or glutamate plus 0.66 pmol Rp-cAMP (110 nM in the infusate). Animals were then labeled with ^2H2O for 8 hours (A) or 24 hours (B). At sacrifice, the hippocampal post-nuclear supernatant was fractionated as show in FIG. 5A; a separate aliquot was used for isolation of cold stable (CS) MTs (FIG. 5D). Glutamate injection stimulated label incorporation into new MAP2/STOP-MTs at 8 and 24 hours, and CS MTs at 24 hours; both were blocked by Rp-cAMP. In order to correct the effects of pharmacologic intervention on MT dynamics for the confounding changes in tubulin synthesis, the numbers above each bar express ^2H label incorporation into MT as a percentage of ^2H labeling in the corresponding tubulin dimer fractions. (C) Dose dependence of glutamate effects. ^2H2O labeling was initiated at time zero, 6 μl ICVC infusions with the indicated concentrations of glutamate were performed at 24 hours, and labeling was continued until sacrifice at 48 hours (24 hours post glutamate infusion). Hippocampal MTs were fractionated into tau-associated, MAP2-associated, and non-associated (STOP-associated) MT fractions, as in FIG. 5A. In all experiments, bars represent % new tubulin (mean±SD, n=3).
Tubulin was purified using minor modifications of protocols described previously (Fanara, P., Oback, B., Ashman, K., Podtelejnikov, A., Brandt, R. Identification of MINUS, a small polypeptide that functions as a microtubule nucleation suppressor. EMBO J. 18, 565-577 (1999); Fanara, P. et al. In vivo measurement of microtubule dynamics using stable isotope labeling with heavy water. Effect of taxanes. J. Biol. Chem. 279, 49940-49947 (2004). Briefly, cultured neurons were gently scraped off culture plates, washed in phosphate-buffered saline (PBS), and homogenized in microtubule-stabilizing buffer. For purification ex vivo, mice were anesthetized with isoflurane and euthanized by cervical dislocation. Brains were rapidly removed and washed in microtubule-stabilizing buffer (MSB); hippocampi were dissected and gently homogenized in MSB. To separate cytosolic tubulin dimers from microtubule polymers, post-nuclear supernatants were centrifuged at 190,000×g at 20° C. for 35 min. The supernatant or non-microtubule fraction (containing the soluble dimeric tubulin) was separated from the pellet or microtubule fraction (containing polymeric tubulin), quick-frozen and stored at −20° C. Microtubule pellets were further fractionated by sequential immunoaffinity chromatography steps (FIG. 3). In order to isolate tau-associated microtubules, TAU5 antibody was covalently coupled to epoxy-activated Sepharose beads (Amersham Pharmacia Biotech) at a concentration of 0.25 mg/ml. Approximately 0.2 mg of the microtubule pellet was incubated with TAU-5 beads in 0.5 ml MSB for 1 hour at room temperature. Unbound material was removed, the beads were washed three times in 0.5 ml of MSB, and bound material was eluted in 0.5 ml MSB containing 1M NaCl. In some experiments, MAP2-associated microtubules were captured from the TAU5-unbound material by immunoaffinity chromatography on epoxy-activated Sepharose beads coupled to MAP2 antibody (0.5 mg antibody per ml beads) using the same protocol. The relative abundance of tubulin in each preparation (Tubulin dimers and TAU5-bound, MAP2-bound, and unbound microtubule fractions) was quantified by Western blot, and tubulin from these fractions was further purified by ion exchange and size exclusion chromatography, as previously described (Fanara, P. et al. In vivo measurement of microtubule dynamics using stable isotope labeling with heavy water. Effect of taxanes. J. Biol. Chem. 279, 49940-49947 (2004)). […]

[3] = tested on: total hippocampal proteins; experiment: Fractional synthesis of total hippocampal proteins; assay type: in vivo, mouse; settings: coadministration of 0.66 pmol Rp-cAMP with glutamate
Description: FIG. 7 depicts the effects of ICV glutamate on the relative amounts of MT subpopulations and on total protein synthesis in murine hippocampus. (A, B) Tubulin abundances are measured by Western blot analysis for α-tubulin at 8 hour (A) and 24 hours (B). Subpopulations were total extract (total), free tubulin dimers, tau-associated MTs, tau-nonassociated (MAP2/STOP) MTs and cold stable (CS) MTs. Mock and glutamate infused ICVC mice are shown (cf. FIGS. 6A and B). […] (C) Fractional synthesis of total hippocampal proteins. Glutamate increased protein synthesis versus mock-treated animals (*p<0.01); this effect was blocked by coadministration with 0.66 pmol of Rp-cAMP (**p<0.02).
This hypothesis had not previously been tested in the living brain, however. To test this hypothesis, we used the methods of the invention disclosed herein. Mice were infused with 6 μl water containing 0.48 nmol glutamate (80 μM in the infusate), or glutamate plus 0.66 pmol Rp-cAMP (110 nM in the infusate). Label incorporation into hippocampal tubulin dimers and into microtubule polymers was then quantified after administration of ^2H2O for 8 hours or 24 hours (FIGS. 7A and 7B). […] These findings further strengthen the previously reported correlation between hippocampus glutamate NMDA receptor-dependent learning (long-term potentiation) and protein synthesis (Kandel, E. R. The molecular biology of memory storage: a dialogue between genes and synapses. Science 294, 1030-1038 (2001)). By the same criterion, the glutamate-induced program of changes in hippocampal microtubule dynamics shown in FIGS. 6 and 7 also alters hippocampal total protein synthesis in vivo (data not show), further supporting the capacity of the invention disclosed herein to generate a biochemical record of basic neuroanatomic connectivity in the brain and thereby to reveal the dynamics of synaptogenesis in vivo.

Structure (SMILES)	toxicity [1]	glutamate-stimulated label incorporation into new MAP2/STOP-MTs ([2]; 0.48 nmol glutamate plus 0.66 pmol Rp-cAMP ICVC, 8 and 24 hours)	glutamate-stimulated label incorporation into CS MTs ([2]; 0.48 nmol glutamate plus 0.66 pmol Rp-cAMP ICVC, 24 hours)	fractional synthesis of tubulin dimers and microtubules ([2]; glutamate plus 0.66 pmol Rp-cAMP, 24 hours)	glutamate-induced increase in total hippocampal protein synthesis [3]
[2H]O[2H] [^2H2O]	without any evidence of toxicity				
Nc1ncnc2c1ncn2[C@@H]1O[C@@H]2COP(O)(=S)O[C@H]2[C@H]1O (single isomer, unassigned) [Rp-cAMP, adenosine-3′,5′-monophosphorothioate, Rp-isomer]		blocked	blocked	significantly blocked	blocked
